In data set [1] the test system is P. aeruginosa ATCC 9027. The settings on record: ATCC 9027, 3 h, pH 7.4.
The test system of data set [2] is adult human epidermal keratinocytes (HEKa) cells. The experiment in a line: MTT assay. It is filed as cell-based. The conditions noted are these: for Toxic effects on metabolically active HEKa cells (MTT): 12.5˜100 μg/ml. Here is the method:
MTT assay: The toxic effect of the peptides on adult human epidermal keratinocytes (HEKa) cells was evaluated using the MTT (3-(4,5-dimethylthiazolyl-2)-2,5-diphenyltetrazolium bromide) colorimetric method (Di Grazia et al., Antimicrob Agents Chemother 58:2520-2527, 2014). The color intensity of the MTT is directly proportional to the number of metabolically active cells. Keratinocytes were plated in triplicate wells of a 96-well plate, at 4×10^4 cells/well in EpiLife medium supplemented with HKGS. After overnight incubation at 37° C. in a 5% CO2 atmosphere, the plate was incubated with the peptides at different concentrations for 2 hours, and 0.5 mg/ml of MTT was added. After 4 hours of incubation, formazan crystals were dissolved by adding 100 μl of acidified isopropanol, and the absorbance of each well was measured at 570 nm using a microplate reader (PowerWave X; BioTek, Winooski, Vt.).
For orientation: Tetrazolium dyes change colour on reduction, which living cells bring about.

Data set [3] relates to P. aeruginosa PAO1. The settings on record: PAO1, 3 h, pH 7.4.
Data set [4] deals with F. novicida U112. The settings on record: 3 hours, 10 mM sodium phosphate buffer pH 7.4.
The test system of data set [5] is E. coli O157:H7. The conditions noted are these: 3 hours, 10 mM sodium phosphate buffer pH 7.4.
For data set [6], the system named is P. aeruginosa PAO1 (pTDK-GFP).
Data set [7] has as its system Gram-negative P. aeruginosa and E. coli and the Gram-positive S. aureus.
Data set [8] has as its system S. aureus ATCC25923. The conditions noted are these: ATCC25923, 3 h, pH 7.4.
Data set [9] deals with S. aureus SH1000 (pAH9-RFP). The conditions noted are these: 3 hours, 10 mM sodium phosphate buffer pH 7.4.
Data set [10] has as its system HEKa cells. Briefly: In vitro scratch wound closure assay. The settings on record: 10 μg/ml DRGN-1; 20 μM mitomycin C or 0.2 μM AG1478 pretreatment. Type of data set: cell-based, human. As to the method:
In vitro scratch wound closure assays: In vitro wound closure was assayed in confluent cell monolayers of HEKa (Invitrogen) as described elsewhere (Kim et al., Amino Acids 46:2333-2343, 2014). Cells were seeded in 6-well plates (Corning, N.Y., USA) and grown until they reached confluence (48 hours) in EpiLife medium supplemented with HKGS. Cells were starved for 18 hours in EpiLife without HKGS and then scratched once vertically with a 200-μl pipette tip to create an artificial wound. For inhibitor studies, mitomycin C (20 μM final) and AG1478 (0.2 μM final) were added 90 minutes and 10 minutes prior to scratch generation. After being washed twice with PBS to remove cellular debris, cells were treated with DRGN-1, VK25 or LL-37. PBS was used as a negative control. Cells were photographed before peptide treatment and 7 hours and 24 hours after peptide treatment using an EVOS® Cell Imaging Systems (Invitrogen). The same image fields were captured and the wound areas were estimated using ImageJ software (Schneider et al., Nat Methods 9:671-675, 2012).

Data set [11] deals with EGFR. The experiment in a line: Western blotting, EGFR phosphorylation. The settings on record: 0.2 μM AG1478, 10 minutes preincubation. Type of data set: cell-based, human. As to the method:
FIGS. 8A-8F indicate transactivation of the EGFR-STAT pathway by DRGN-1. Subconfluent keratinocytes were starved for 2 hours in HGKS-free medium and then stimulated with 10 μg/ml DRGN-1. For EGFR inhibition, cells were preincubated with 0.2 μM AG1478 for 10 minutes and subsequently treated with 10 μg/ml DRGN-1. The cells were harvested into lysis buffer at the indicated times. The phosphorylation of EGFR (p-EGFR) and STAT3 (p-STAT3) was analyzed by Western blotting (FIGS. 8A, 8B, 8D, and 8E). EGFR indicates total EGFR protein. FIGS. 8C and 8F are graphs plotting densitometric analyses of the expression of phosphoprotein relative to unphosphorylated proteins (pEGFR/EGFR, FIG. 8C; pSTAT3/STAT3, FIG. 8F).
Western blotting: Semifluent HEKa cells were serum-starved for 3 hours and then stimulated with 10 μg/ml DRGN-1 or HKGS for 5-30 minutes at 37° C. AG1478 (0.2 μM final) was added 10 minutes prior to DRGN-1 or HKGS treatment. Cells were lysed with 2×Laemmli sample buffer (Bio-Rad; Hercules, Calif.) containing 5 mM sodium fluoride and 2 mM sodium vanadate. Cell lysates were separated on a 4-12% SDS-PAGE gel and transferred to polyvinylidene difluoride membrane using an iBlot system (Invitrogen). The membranes were probed with antibodies specific to phospho-EGFR and EGFR (Cell Signaling). […]
For orientation: Immunoblotting shows a protein as a band on a membrane.

Data set [12] has as its system sheep erythrocytes. The experiment in a line: Hemolytic activity. It is filed as cell-based. The conditions noted are these: high concentration. As to the method:
FIG. 4 is a graph plotting hemolytic activity of CAMPs. A fresh sheep erythrocyte suspension was incubated with the indicated peptides. Hemoglobin release into the supernatant was measured by absorbance at 567 nm to indicate membrane damage of erythrocytes.

Data set [13] deals with internalized P. aeruginosa ATCC 9027 in HEKa keratinocytes. Briefly: P. aeruginosa-infected HEKa keratinocytes. Type of data set: cell-based, Pseudomonas aeruginosa. The settings on record: 30 μg/ml, 2 hours. Here is the method: Cell infection: Adult human epidermal keratinocytes HEKa (Invitrogen, Carlsbad, Calif.) cells were seeded in 24-well plates (Corning) and grown until they reached confluence (48 h) in EpiLife medium (Thermo Scientific) supplemented with human keratinocyte growth supplements (HKGS) containing 0.2% v/v bovine pituitary extract, 5 μg/ml bovine insulin, 0.18 μg/ml hydrocortisone, 5 μg/ml bovine transferrin, and 0.2 ng/ml human epidermal growth factor (EGF) (Invitrogen). The bacterial strain P. aeruginosa ATCC 9027 was grown in brain heart infusion (BHI) media at 37° C. with mild shaking and then harvested by centrifugation. Bacterial suspension (MOI 10) in EpiLife medium was co-incubated with keratinocytes for 2 hours at 37° C. and 5% CO2. The medium was aspirated and the cells were washed three times with PBS to remove non-adherent bacteria. In order to kill extracellular bacteria, cells were incubated for 1 hour in EpiLife without HKGS supplemented with 100 μg/ml of gentamicin. The medium was then aspirated and the infected cells were washed three times, as described above. Three hundred microliters of peptide solution (30 μg/ml) in EpiLife without HKGS was added to each well and the plate was incubated for 2 hours at 37° C. and 5% CO2. […] The CFU were counted after 24 hours at 37° C.

Where [14] appears, read: 3 hours, 10 mM sodium phosphate buffer pH 7.4.

≈ marks a conversion by molar mass, not a printed value. Read-outs that look alike come from different tables or passages of the source. No end group written: not given here.

By EC50 is commonly meant the concentration that produces a half-maximal response. High values mean a less potent agent, low ones a more potent agent. On to SPKKTKPVKPKKVA [VK25, SPKKTKPVKPKKVA], for which the EC50 in [1], in [3], in data set [4], in data set [5], in [6] (setting [14]) and in [8] was over 100 µg/mL each time. Also, in data set [9], the EC50 was over 100 µg/mL. Moreover, the “Toxic effects on metabolically active HEKa cells (MTT)” value in [2] is listed as “devoid of toxic effects”. In addition, the “EC50, range over strains” value in data set [7] is over 100 µg/mL.

`CO[C@@]12[C@H](COC(N)=O)C3=C(C(=O)C(C)=C(N)C3=O)N1C[C@@H]1N[C@@H]12` [mitomycin C]: the “Effect on keratinocyte migration induced by DRGN-1” value in data set [10] is “strongly inhibited”.

In the case of `CC[C@H](C)[C@H](NC(=O)[C@H](CCCCN)NC(=O)[C@H](CCC(=O)O)NC(=O)[C@H](CCCCN)NC(=O)[C@H](CO)NC(=O)[C@H](CCCCN)NC(=O)[C@H](CCCNC(=N)N)NC(=O)[C@H](Cc1ccccc1)NC(=O)[C@H](Cc1ccccc1)NC(=O)[C@H](CC(=O)O)NC(=O)CNC(=O)[C@H](CC(C)C)NC(=O)[C@@H](N)CC(C)C)C(=O)NCC(=O)N[C@@H](CCCCN)C(=O)N[C@@H](CCC(=O)O)C(=O)N[C@@H](Cc1ccccc1)C(=O)N[C@@H](CCCCN)C(=O)N[C@@H](CCCNC(=N)N)C(=O)N[C@H](C(=O)N[C@H](C(=O)N[C@@H](CCC(N)=O)C(=O)N[C@@H](CCCNC(=N)N)C(=O)N[C@H](C(=O)N[C@@H](CCCCN)C(=O)N[C@@H](CC(=O)O)C(=O)N[C@@H](Cc1ccccc1)C(=O)N[C@@H](CC(C)C)C(=O)N[C@@H](CCCNC(=N)N)C(=O)N[C@@H](CC(N)=O)C(=O)N[C@@H](CC(C)C)C(=O)N[C@H](C(=O)N1CCC[C@H]1C(=O)N[C@@H](CCCNC(=N)N)C(=O)N[C@H](C(=O)N[C@@H](CCC(=O)O)C(=O)N[C@@H](CO)C(=O)O)[C@@H](C)O)C(C)C)[C@@H](C)CC)C(C)C)[C@@H](C)CC` [LL-37, reference compound], the EC50 was 1.08 µg/mL (≈ 0.24 µM) in [1]; 2.69 µg/mL (≈ 0.599 µM) in data set [6] (PAO1, 3 h, pH 7.4); 50 to 600 nM in [7]. The “HEKa cell viability (MTT)” value in data set [2] (50˜100 μg/ml) is “significant decrease”. Further, the “EC50, range over strains” value in data set [7] fell in the range of 0.24 to 2.7 µg/mL.

With `COc1cc2ncnc(Nc3cccc(Cl)c3)c2cc1OC` [AG1478], the “Effect on keratinocyte migration induced by DRGN-1” value in [10] was “prevented cell migration”. For the same compound, the “Effect on DRGN-1-induced EGFR phosphorylation” value in data set [11] is recorded as “not observed in AG1478-treated cells”.

As to PSKKTKPVKPKKVA [DRGN-1, PSKKTKPVKPKKVA], the EC50 in data set [1] is 4.39 µg/mL; in data set [3], 6.85 µg/mL; in data set [4] it was over 100 µg/mL; in data set [5], 3.48 µg/mL; in data set [6] (setting [14]), 7.10 µg/mL; in data set [7], 500 to 4620 nM. The EC50 in data set [8] stood at 4.04 µg/mL; in data set [9], 0.77 µg/mL. Further, the “Toxic effects on metabolically active HEKa cells (MTT)” value in data set [2] is reported as “devoid of toxic effects”. Also, the “Toxicity against erythrocytes (hemolysis)” value in data set [12] is “did not show any toxicity”. The “EC50, range over strains” value in data set [7] lay in the range of 0.77 to 7.1 µg/mL. Moreover, the “Killing of internalized bacteria” value in data set [13] worked out at 36%.

These data come from patent US10633420B2, “Antimicrobial peptides with wound healing activity” (priority 2016, dated 2020).
